# Measurements as given in ChEMBL document CHEMBL1806491, “The tandem chain extension aldol reaction used for synthesis of ketomethylene tripeptidomimetics targeting hPEPT1” (Bioorg Med Chem Lett, 2011).
# Non-standard residues stand in square brackets, D forms with d. Residues, ends and D or L forms follow the SMILES beside them. *: point of attachment. 1Nal = N[C@@H](Cc1cccc2ccccc12)C(=O)O; Chg = N[C@H](C(=O)O)C1CCCCC1; Nva = CCC[C@H](N)C(=O)O; Bz = O=C(c1ccccc1)*
# Tests used:
# [1] = biological target: T1, Solute carrier family 15 member 1 (Homo sapiens) (UniProt P46059); experiment: (§1) Binding affinity to PEPT1 in human Caco2 cells assessed as inhibition of [14C]Gly-Sar apical uptake after 5 mins by liquid scintillation counting; type: cell-based; conditions: Caco-2
# T1 sequence (whole entry): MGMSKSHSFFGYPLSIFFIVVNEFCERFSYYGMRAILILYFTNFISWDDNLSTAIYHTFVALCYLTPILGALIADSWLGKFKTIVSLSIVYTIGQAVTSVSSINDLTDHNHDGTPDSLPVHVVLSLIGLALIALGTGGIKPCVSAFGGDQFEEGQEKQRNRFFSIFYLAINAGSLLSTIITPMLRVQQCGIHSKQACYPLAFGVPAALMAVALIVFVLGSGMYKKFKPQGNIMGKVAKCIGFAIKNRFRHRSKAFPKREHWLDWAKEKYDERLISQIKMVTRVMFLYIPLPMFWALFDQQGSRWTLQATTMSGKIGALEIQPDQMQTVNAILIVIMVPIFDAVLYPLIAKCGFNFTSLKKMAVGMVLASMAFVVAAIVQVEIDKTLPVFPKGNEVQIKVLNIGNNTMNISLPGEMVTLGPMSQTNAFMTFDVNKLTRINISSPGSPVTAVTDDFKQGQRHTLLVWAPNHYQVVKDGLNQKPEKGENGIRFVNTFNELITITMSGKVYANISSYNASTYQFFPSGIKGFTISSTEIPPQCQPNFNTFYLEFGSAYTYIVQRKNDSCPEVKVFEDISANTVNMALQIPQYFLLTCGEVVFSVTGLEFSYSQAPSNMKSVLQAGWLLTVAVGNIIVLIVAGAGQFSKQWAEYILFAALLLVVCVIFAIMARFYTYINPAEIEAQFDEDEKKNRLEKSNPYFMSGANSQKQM
# [2] = biological target: T2, Solute carrier family 15 member 1 (Homo sapiens, UniProt P46059); experiment: as §1; type: cell-based, Caco-2
# T2 sequence (P46059 whole entry): T1 sequence (whole entry)
Structure (SMILES),inhibition [1],Ki [2] [µM]
C[C@H](NC(=O)[C@H](CO)NC(=O)[C@@H](N)Cc1ccccc1)C(=O)O (H-Phe-Ser-Ala-OH),Dose-dependent effect,257
C[C@H](NC(=O)[C@H](COC(=O)c1ccccc1)CC(=O)[C@@H](N)Cc1ccccc1)C(=O)O,Dose-dependent effect,324
N[C@@H](Cc1ccccc1)C(=O)N[C@@H](COC(=O)c1ccccc1)C(=O)N[C@H](C(=O)O)C1CCCCC1 (H-Phe-Ser(Bz)-[Chg]-OH),Dose-dependent effect,–
N[C@@H](Cc1ccccc1)C(=O)N[C@@H](COC(=O)c1ccccc1)C(=O)N[C@@H](Cc1cccc2ccccc12)C(=O)O (H-Phe-Ser(Bz)-[1Nal]-OH),Dose-dependent effect,–
N[C@@H](Cc1ccccc1)C(=O)C[C@@H](COC(=O)c1ccccc1)C(=O)N[C@H](C(=O)O)C1CCCCC1,Dose-dependent effect,–
CCC[C@H](NC(=O)[C@H](COC(=O)c1ccccc1)CC(=O)[C@@H](N)Cc1ccccc1)C(=O)O,Dose-dependent effect,251
CCC[C@H](NC(=O)[C@H](COC(=O)c1ccccc1)NC(=O)[C@@H](N)Cc1ccccc1)C(=O)O (H-Phe-Ser(Bz)-[Nva]-OH),Dose-dependent effect,–
